# Test results reported in paper PMC7076788, “Interactions of Destruxin A with Silkworms’ Arginine tRNA Synthetase and Lamin-C Proteins” (Toxins, 2020).
# Residue numbers refer to the chain shown, from its start. Where a SMILES comes first, the peptide text is derived from it. [ ]: non-standard residue; d: D form. dLac(3-vinyl) = C=CC[C@@H](O)C(=O)O; NMeV = CN[C@H](C(=O)O)C(C)C; NMeA = CN[C@@H](C)C(=O)O; βAla = NCCC(=O)O
# Legend:
# Assay in all cases: bio-layer interferometry, immobilised protein
# Assay type in all cases: binding
# [1] = biological target: T1, BmArgRS (Bombyx mori, UniProt A0A8R1WK71)
# T1 construct: gene 101737924; apparently full length (catalytic core 216-481)
# T1 sequence (A0A8R1WK71 1-683): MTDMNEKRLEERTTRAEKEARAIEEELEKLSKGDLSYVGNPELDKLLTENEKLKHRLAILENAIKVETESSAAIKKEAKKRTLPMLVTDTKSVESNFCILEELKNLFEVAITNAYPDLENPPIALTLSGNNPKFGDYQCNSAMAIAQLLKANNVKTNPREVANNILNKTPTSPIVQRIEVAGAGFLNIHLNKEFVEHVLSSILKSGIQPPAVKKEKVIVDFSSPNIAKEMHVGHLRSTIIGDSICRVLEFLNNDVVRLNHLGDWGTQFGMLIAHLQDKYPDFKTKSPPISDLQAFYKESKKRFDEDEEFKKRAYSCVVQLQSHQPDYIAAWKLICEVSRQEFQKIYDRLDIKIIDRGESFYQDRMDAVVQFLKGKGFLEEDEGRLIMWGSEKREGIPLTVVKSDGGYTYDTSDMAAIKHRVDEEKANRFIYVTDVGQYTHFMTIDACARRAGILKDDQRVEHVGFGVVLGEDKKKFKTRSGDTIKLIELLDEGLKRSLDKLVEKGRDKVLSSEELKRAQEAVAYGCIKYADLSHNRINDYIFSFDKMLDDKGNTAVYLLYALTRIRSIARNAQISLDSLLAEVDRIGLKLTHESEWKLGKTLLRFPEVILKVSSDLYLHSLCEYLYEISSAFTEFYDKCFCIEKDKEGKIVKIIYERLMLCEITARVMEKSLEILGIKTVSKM
# Text: bio-layer interferometry, immobilised protein on BmArgRS
# [2] = biological target: T2, BmArgRS (Bombyx mori, UniProt A0A8R1WK71, K475A)
# T2 construct: gene 101737924; apparently full length (catalytic core 216-481)
# T2 sequence (A0A8R1WK71 1-683 K475A): T1 sequence (A0A8R1WK71 1-683) with K475A
# [3] = biological target: T3, BmArgRS (Bombyx mori, UniProt A0A8R1WK71, V468A)
# T3 construct: gene 101737924; apparently full length (catalytic core 216-481)
# T3 sequence (A0A8R1WK71 1-683 V468A): T1 sequence (A0A8R1WK71 1-683) with V468A
smiles,measurement,setting,value
C=CC[C@H]1OC(=O)CCNC(=O)[C@H](C)N(C)C(=O)[C@H](C(C)C)N(C)C(=O)[C@H]([C@@H](C)CC)NC(=O)[C@@H]2CCCN2C1=O [Destruxin A] (cyclo(I[NMeV][NMeA][βAla][dLac(3-vinyl)]P)),Kd,[1],55.3 µM
same,Kd,[2],5.71 µM
same,Kd,[3],53 µM
